The structures appear in SMILES notation. pIC50: −log10 of the molar value.

IC50 data for three molecules are collected here from ChEMBL document CHEMBL5725310, “Substituted imidazo[1,5-α]pyridines and imidazo[1,5-α]pyrazines as LSD1 inhibitors” (2017).

In the test the target is Lysine-specific histone demethylase 1A (Homo sapiens, UniProt O60341). As to the kind of experiment: Demethylase Biochemical Assay: LANCE LSD1/KDM1A demethylase assay¿10 uL of 1 nM LSD-1 enzyme (ENZO BML-SE544-0050) in the assay buffer (50 mM Tris, pH 7.5, 0.01% Tween-20, 25 mM NaCl, 5 mM DTT) were preincubated for 1 hour at 25° C. with 0.8 uL compound/DMSO dotted in black 384 well polystyrene plates. Reactions were started by addition of 10 uL of assay buffer containing 0.4 uM Biotin-labeled Histone H3 peptide substrate: ART-K(Me1)-QTARKSTGGKAPRKQLA-GGK(Biotin) SEQ ID NO:1 (AnaSpec 64355) and incubated for 1 hour at 25° C. Reactions were stopped by addition of 10 uL 1x LANCE Detection Buffer (PerkinElmer CR97-100) supplemented with 1.5 nM Eu-anti-unmodified H3K4 Antibody (PerkinElmer TRF0404), and 225 nM LANCE Ultra Streptavidin (PerkinElmer TRF102) along with 0.9 mM Tranylcypromine-HCl (Millipore 616431). After stopping the reactions plates were incubated for 30 minutes and read on a PHERAstar FS plate reader (BMG Labtech). Background: Time-resolved FRET reads energy transfer from a long-lived donor to a nearby acceptor.
As to `COC(=O)N(C)c1ccc(-c2c(-c3ccc(C#N)cc3)nc(N3CCC(N(C)C)CC3)c3cncn23)cc1F`, the pIC50 (usually the IC50 on a negative log10 scale, so that one unit is a factor of ten) is more than 7.30.

In turn, `COC(=O)N(C)c1ccc(-c2c(-c3ccc(C#N)cc3)cc(OC[C@@H]3CCCN(C)C3)c3cncn23)cn1` had a pIC50 of more than 7.30. With `COC(=O)N(C)c1ccc(-c2c(-c3ccc(C#N)cc3)nc(N3CCC(N(C)C)CC3)c3cncn23)cn1` the figure was more than 7.30.
